Test results taken from US6645983B1, “Pharmaceutical compositions comprising 4-quinolones for treating cancers” (Laboratoire L. Lafon, priority 1999, dated 2003).

Key:
A-427 = test: MTT test, cytotoxic activity on non-clonogenic cell lines; assay type: cell-based; settings: Homo sapiens, 10^−5 M, 72 hours incubation, MTT, mean value, read-out: mean optical density, expressed as percentage relative to the mean optical density under the control condition (100%)
Outline: (§1)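 Compounds span 10^−5 to 10^−10 M, with solvent-treated wells as control, and the formazan is quantified by absorbance after DMSO solubilization.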

A549 = test: as above; assay type: cell-based; settings: Homo sapiens, 10^−5 M, 72 hours incubation, MTT, mean value, read-out: mean optical density, expressed as percentage relative to the mean optical density under the control condition (100%)
Outline: as §1

HCT-15 = test: as above; assay type: cell-based; settings: Homo sapiens, HCT-16, 10^−5 M, 72 hours incubation, MTT, mean value, read-out: mean optical density, expressed as percentage relative to the mean optical density under the control condition (100%)
Outline: as §1

LoVo = test: as above; assay type: cell-based; settings: Homo sapiens, 10^−5 M, 72 hours incubation, MTT, mean value, read-out: mean optical density, expressed as percentage relative to the mean optical density under the control condition (100%)
Outline: as §1

MCF7 = test: as above; assay type: cell-based; settings: Homo sapiens, 10^−5 M, 72 hours incubation, MTT, mean value, read-out: mean optical density, expressed as percentage relative to the mean optical density under the control condition (100%)
Outline: as §1

PC-3 = test: as above; assay type: cell-based; settings: Homo sapiens, 10^−5 M, 72 hours incubation, MTT, mean value, read-out: mean optical density, expressed as percentage relative to the mean optical density under the control condition (100%)
Outline: as §1

T-47D = test: as above; assay type: cell-based; settings: Homo sapiens, T47D; T-47D; 10^−5 M; 72 hours incubation; MTT; mean value; read-out: mean optical density, expressed as percentage relative to the mean optical density under the control condition (100%)
Outline: as §1

U-373MG = test: as above; assay type: cell-based; settings: Homo sapiens, U373 MG; U-373MG; 10^−5 M; 72 hours incubation; MTT; mean value; read-out: mean optical density, expressed as percentage relative to the mean optical density under the control condition (100%)
Outline: as §1

U-87MG = test: as above; assay type: cell-based; settings: Homo sapiens; U-87MG; 10^−5 M; 72 hours incubation; MTT; mean value; read-out: mean optical density, expressed as percentage relative to the mean optical density under the control condition (100%)
Outline: as §1

SW1088 = test: as above; assay type: cell-based; settings: Homo sapiens, 10^−5 M, 72 hours incubation, MTT, mean value, read-out: mean optical density, expressed as percentage relative to the mean optical density under the control condition (100%)
Outline: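 Human astrocytoma SW1088 cells seeded, grown 24 h at 37° C, 5% CO2, then exposed to compounds at 10^−5 to 10^−10 M versus solvent control. Viability by MTT reduction: 3 h MTT incubation, formazan dissolved in DMSO and read by spectrophotometry.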

J82 = test: as above; assay type: cell-based; settings: Homo sapiens, 10^−5 M, 72 hours incubation, MTT, mean value, read-out: mean optical density, expressed as percentage relative to the mean optical density under the control condition (100%)
Outline: (§2)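 Human bladder cancer lines were seeded at 20 000–50 000 cells/ml and, after 24 h, exposed to compounds at 10^−5 to 10^−10 M against a solvent control. Formazan was dissolved in DMSO and viability was read by spectrophotometric optical density.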

T24 = test: as above; assay type: cell-based; settings: Homo sapiens, T-24; T24; 10^−5 M; 72 hours incubation; MTT; mean value; read-out: mean optical density, expressed as percentage relative to the mean optical density under the control condition (100%)
Outline: as §2

[1] = Determination of the maximum tolerated dose (MTD); settings: B6D2F1/Jico, mouse, in vivo, ip; single intraperitoneal administration, doses 2.5 to 160 mg/kg, survival over 14 days
Outline: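 Mice were 4- to 6-week-old B6D2F1/Jico. They received a single intraperitoneal dose of 2.5 to 160 mg/kg, and survival and body weight were followed for 14 days. MTD is given in mg/kg and is capped at 160 mg/kg by default.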

SMILES | melting point | viability at 10 µM (A-427) | viability at 10 µM (A549) | viability at 10 µM (HCT-15) | viability at 10 µM (LoVo) | viability at 10 µM (MCF7) | viability at 10 µM (PC-3) | viability at 10 µM (T-47D) | viability at 10 µM (U-373MG) | viability at 10 µM (U-87MG) | viability at 10 µM (SW1088) | viability at 10 µM (J82) | viability at 10 µM (T24) | MTD at 14 day [1]
COc1ccc(-c2cn(C)c3cc(OC)cc(NCCN(C)C)c3c2=O)cc1 [CRL8462, 5-{[(Dimethylamino)ethyl]amino}-7-methoxy-3-(4-methoxyphenyl)-1-methyl-1,4-dihydro-4-quinolinone] |  | 77.1% | 86.8% | 77.4% | 84.6% | 89.4% | 84% | 92.2% | 111% | 195% | 105% | 105% | 111% | > 160 mg/kg
COc1ccc(-c2cn(C)c3cc(OC)ccc3c2=O)cc1 [CRL8464, 7-Methoxy-3-(4-methoxyphenyl)-1-methyl-1,4-dihydro-4-quinolinone] |  | 102% | 91.3% | 111% | 101% | 99.8% | 97.1% | 110% | 118% | 105% | 95.6% | 95.4% | 105% | > 160 mg/kg
CCOC(=O)Cn1cc(-c2ccc(OC)cc2)c(=O)c2ccc(OC)cc21 [CRL8465, Ethyl 2-[7-methoxy-3-(4-methoxyphenyl)-4-oxo-1,4-dihydro-1-quinolinyl]acetate] |  | 85.4% | 80.1% | 165% | 110% | 94.3% | 96.9% | 94.4% | 100% | 105% | 89.8% | 93.6% | 91.2% | > 160 mg/kg
CCN(CC)C(=O)Cn1cc(-c2ccc(OC)cc2)c(=O)c2ccc(OC)cc21 [CRL8466, N,N-Diethyl-2-[7-methoxy-3-(4-methoxyphenyl)-4-oxo-1,4-dihydro-1-quinolinyl]acetamide] |  | 97.5% | 101% | 96.1% | 98.9% | 108% | 102% | 95.2% | 59.4% | 97.2% | 102% | 93.1% | 69.5% | > 160 mg/kg
COc1ccc(-c2cn(CCC#N)c3cc(OC)ccc3c2=O)cc1 [CRL8467, 3-[7-Methoxy-3-(4-methoxyphenyl)-4-oxo-1,4-dihydro-1-quinolinyl]propanenitrile] |  | 90% | 90.8% | 108% | 95.8% | 98.3% | 98.4% | 100% | 108% | 95.3% | 101% | 96.3% | 94.6% | > 160 mg/kg
CCOC(=O)CCn1cc(-c2ccc(OC)cc2)c(=O)c2ccc(OC)cc21 [CRL8468, Ethyl 3-[7-methoxy-3-(4-methoxyphenyl)-4-oxo-1,4-dihydro-1-quinolinyl]propanoate] |  | 69.7% | 93.6% | 111% | 97.2% | 79.1% | 95% | 92.2% | 107% | 92.7% | 104% | 91.9% | 98.5% | > 160 mg/kg
COc1ccc(-c2cn(CCCC#N)c3cc(OC)ccc3c2=O)cc1 [CRL8470, 4-[7-Methoxy-3-(4-methoxyphenyl)-4-oxo-1,4-dihydro-1-quinolinyl]butanenitrile] |  | 103% | 80.2% | 95.5% | 86.6% | 92.8% | 94% | 88.8% | 104% | 97.2% | 92.5% | 85.6% | 101% | > 160 mg/kg
COc1ccc(-c2cn(CCc3nnn[nH]3)c3cc(OC)ccc3c2=O)cc1 [CRL8474, 7-Methoxy-3-(4-methoxyphenyl)-1-[2-(2H-1,2,3,4-tetrazol-5-yl)ethyl]-1,4-dihydro-4-quinolinone] | 245 to 246 °C |  |  |  |  |  |  |  |  |  |  |  |  | 
COc1ccc2[nH]cc(-c3ccccc3)c(=O)c2c1 [CRL8488, 6-Methoxy-3-phenyl-1,4-dihydro-4-quinolinone] | 355 to 356 °C |  |  |  |  |  |  |  |  |  |  |  |  | 
COc1cc(OC)c2c(=O)c(-c3ccccc3)cn(C)c2c1 [CRL8489, 5,7-Dimethoxy-3-phenyl-1-methyl-1,4-dihydro-4-quinolinone] | 179 to 180 °C |  |  |  |  |  |  |  |  |  |  |  |  | 
COc1ccc(-c2c[nH]c3ccc(OC)cc3c2=O)cc1 [CRL8490, 6-Methoxy-3-(4-methoxyphenyl)-1,4-dihydro-4-quinolinone] | 335 to 336 °C |  |  |  |  |  |  |  |  |  |  |  |  | 
COc1ccc(-c2c[nH]c3cccc(OC)c3c2=O)cc1 [CRL8491, 5-Methoxy-3-(4-methoxyphenyl)-1,4-dihydro-4-quinolinone] | 215 to 216 °C |  |  |  |  |  |  |  |  |  |  |  |  | 
COc1ccc(-c2c[nH]c3cc(OC)cc(O)c3c2=O)cc1 [CRL8492, 5-Hydroxy-7-methoxy-3-(4-methoxyphenyl)-1,4-dihydro-4-quinolinone] | 236 to 237 °C |  |  |  |  |  |  |  |  |  |  |  |  | 
COc1ccc(-c2cn(C)c3cc(OC)cc(OS(=O)(=O)C(F)(F)F)c3c2=O)cc1 [CRL8493, 7-Methoxy-3-(4-methoxyphenyl)-1-methyl-5-trifluoromethanesulfonate-1,4-dihydro-4-quinolinone] | 184 to 185 °C |  |  |  |  |  |  |  |  |  |  |  |  | 
C=Cc1cc(OC)cc2c1c(=O)c(-c1ccc(OC)cc1)cn2C [CRL8494, 7-Methoxy-3-(4-methoxyphenyl)-1-methyl-5-vinyl-1,4-dihydro-4-quinolinone] | 130 to 131 °C |  |  |  |  |  |  |  |  |  |  |  |  | 

Second part, led by results:

melting point | SMILES | viability at 10 µM (A-427) | viability at 10 µM (A549) | viability at 10 µM (HCT-15) | viability at 10 µM (LoVo) | viability at 10 µM (MCF7) | viability at 10 µM (PC-3) | viability at 10 µM (T-47D) | viability at 10 µM (U-373MG) | viability at 10 µM (U-87MG) | viability at 10 µM (SW1088) | viability at 10 µM (J82) | viability at 10 µM (T24) | MTD at 14 day [1]
169 to 170 °C | C=CCOc1c(-c2ccc(OC)cc2)cnc2cc(OC)cc(OC)c12 [CRL8496, 4-(Allyloxy)-5,7-dimethoxy-3-(4-methoxyphenyl)-quinoline] |  |  |  |  |  |  |  |  |  |  |  |  | 
141 to 142 °C | COc1ccc(-c2cnc3cc(OC)cc(OC)c3c2OCCC2OCCO2)cc1 [CRL8500, 4-[2-(1,3-Dioxolan-2-yl)ethoxy]-5,7-dimethoxy-3-(4-methoxyphenyl)quinoline] |  |  |  |  |  |  |  |  |  |  |  |  | 
117 to 118 °C | COc1ccc(-c2cnc3c(OC)ccc(OC)c3c2OCCCC#N)cc1 [CRL8501, {[5,8-Dimethoxy-3-(4-methoxyphenyl)-4-quinolyl]oxy}butanenitrile] |  |  |  |  |  |  |  |  |  |  |  |  | 
238 to 239 °C | CCOC(=O)COc1c(-c2ccc(OC)cc2)cnc2cc(OC)cc(OC)c12 [CRL8502, Ethyl 2-{[5,7-dimethoxy-3-(4-methoxyphenyl)-4-quinolinyl]oxy}acetate] |  |  |  |  |  |  |  |  |  |  |  |  | 
179 to 180 °C | COc1ccc(-c2cn(C)c3c(OC)ccc(OS(=O)(=O)C(F)(F)F)c3c2=O)cc1 [CRL8511, 8-Methoxy-3-(4-methoxyphenyl)-1-methyl-5-trifluoro-methanesulfonate-1,4-dihydro-4-quinolinone] |  |  |  |  |  |  |  |  |  |  |  |  | 
104 to 105 °C | C=Cc1ccc(OC)c2c1c(=O)c(-c1ccc(OC)cc1)cn2C [CRL8512, 8-Methoxy-3-(4-methoxyphenyl)-1-methyl-5-vinyl-1,4-dihydro-4-quinolinone] |  |  |  |  |  |  |  |  |  |  |  |  | 
